Laboratory results taken from PubChem BioAssay AID1996.
Values after ≈ are worked out from the molar mass of the structure shown.

Settings: buffer; pH 7.4; 200.0 µM

| Compound | solubility kinetic [µg/mL] |
| --- | --- |
| C[N+](C)(C)CC(O)CC(=O)O.[Cl-] (centres undefined) | > 29.6 |
| Cc1ccc(N2CCN(C(=S)Nc3ccccc3)CC2)cc1 | 1 (≈ 3.21 µM) |
| OCCOCCOc1cccc2[nH]ccc12 | 25.9 (≈ 117 µM) |
| COC(=O)c1cccc(NC(=O)CC2NCCNC2=O)c1 (centres undefined) | 39.6 (≈ 136 µM) |
| COc1ccc(Cn2c(C(C)C)nc3sc4ccccc4c(=O)c3c2=O)cc1 | < 0.4 |
| CSc1nc(C)nc(N/C=C(\C#N)S(=O)(=O)c2ccccc2Cl)n1 | 15.6 (≈ 40.9 µM) |
| CCNc1nc(N)c(C(=O)C23CC4CC(CC(C4)C2)C3)s1 | 2 (≈ 6.55 µM) |
| COc1ccc(S(=O)(=O)N(C)C(C)CCc2ccco2)cc1 (centres undefined) | 35 (≈ 108 µM) |
| CN(C(=O)c1cc(-c2ccccc2)on1)C1CCCCC1 | 9.7 (≈ 34.1 µM) |
| OC(CCNCCc1c[nH]c2ccccc12)C(F)(F)Cl (centres undefined) | > 45.4 |
| Cc1nnc(SC(C)C(=O)NCC2CCCO2)s1 (centres undefined) | > 43.1 |
| CCCNC(=O)c1c(O)c2cccc3c2n(c1=O)CCC3 | 0.5 (≈ 1.75 µM) |
| CC(C)(C)c1ccc(C(=O)NCCC(=O)N2CCCC2)cc1 | > 45.4 |
| Cc1ccc2nc(COc3ccc(Cl)cc3)cc(=O)n2c1 | 0.5 (≈ 1.66 µM) |
| NS(=O)(=O)c1ccc(NC(=O)COc2ccc(Cl)cc2)cc1 | 2.5 (≈ 7.34 µM) |
| Cn1c(N)c(C(=O)COC(=O)Cc2cccs2)c(=O)n(C)c1=O | > 50.6 |
| COc1ccc(C(=O)Nc2nc3ccccc3s2)cc1 | < 0.3 |
| Fc1cccc(F)c1/C=N/N1CCOCC1 | > 33.9 |
| Cc1ccc(S(=O)(=O)CC(=O)N2CCN(c3ccc([N+](=O)[O-])cc3)CC2)cc1 | 24.7 (≈ 61.2 µM) |
| COCCn1cnnc1SCC(=O)Nc1cc(C)on1 | > 44.6 |
| O=C(COC(=O)CC1CCCC1)Nc1cccc(F)c1 | > 41.9 |
| Cc1cc2c(SCC(=O)NC3CCCCC3)ncnc2s1 | 4.4 (≈ 13.7 µM) |
| O=c1c2ccccc2ncn1-c1cccc(Br)c1 | 5.5 (≈ 18.3 µM) |
| S=C(NCCCc1ccccc1)NC1CCCCC1 | 22.5 (≈ 81.4 µM) |
| CCCCC(=O)Nc1cccc(C(C)O)c1 (centres undefined) | > 33.2 |

| Compound | solubility kinetic [µg/mL] |
| --- | --- |
| COc1ccccc1C(=O)C1CCCN(C(=O)Nc2ccccc2F)C1 (centres undefined) | > 53.5 |
| Cl.O=C(Nc1ccccc1)N1CCNCC1 | 30.6 |
| Cc1csc(NC(=O)Cc2ccc(Cl)cc2)n1 | 22.2 (≈ 83.2 µM) |
| O=C(Nc1ccc(Br)cc1)N1CCCCCC1 | 7.6 (≈ 25.6 µM) |
| CCCC1Cc2c(sc(N)c2C#N)CO1 (centres undefined) | > 33.3 |
| Cc1nc(SCC(=O)NC2CCCCC2C)nc(C)c1C (centres undefined) | > 46.1 |
| COCCCNc1nc(-c2ccc(Cl)cc2)nc2ccccc12 | 4.3 (≈ 13.1 µM) |
| CC(=O)c1ccc(-n2ccnc2)cc1 | > 27.9 |
| COc1ccc(NC(=O)/C=C/c2cccc(Br)c2)cn1 | 3.8 (≈ 11.4 µM) |
| CC1=C([N+](=O)[O-])C(c2ccc(Cl)cc2)NC(=O)N1 (centres undefined) | > 40.2 |
| Cc1ccccc1C(=O)N[C@H](C(=O)OCC(=O)NC1CC1)C(C)C | > 49.9 |
| O=C(Nc1ccccc1Oc1ccccc1)C1=COCCO1 | 34.3 (≈ 115 µM) |
| COc1ccc(CCC(=O)OCC(=O)Nc2sccc2C(N)=O)cc1OC | 21 (≈ 53.5 µM) |
| Cc1c(C=Nc2ccc(S(=O)(=O)N(C)C)cc2)c(O)[nH]c(=O)c1C#N | 24.7 (≈ 68.5 µM) |
| CCn1c(CNC(=O)C2CCCCC2)cc2cc(C)ccc21 | < 0.3 |
| CCC1(C)Cc2c(sc3[nH]c(=S)[nH]c(=S)c23)CO1 (centres undefined) | 27.7 (≈ 92.8 µM) |
| CNC(=O)c1cccc(NC(=O)C(C)c2ccc3cc(OC)ccc3c2)c1 (centres undefined) | 9.2 (≈ 25.4 µM) |
| Cc1ccc([N+](=O)[O-])c(OCC(O)CNC(C)(C)C)c1.Cl (centres undefined) | > 47.8 |
| Cc1ccnc(SCc2cn3c(C)cc(C)nc3n2)n1 | > 42.8 |
| O=C(NC(=S)NC1CCSC1=O)c1ccc([N+](=O)[O-])cc1 (centres undefined) | 40.6 (≈ 125 µM) |
| CC(=O)n1c(-c2ccccc2)c(-c2ccccc2)n(C)c1=O | > 43.9 |
| CCOC(=O)c1ccc(NCCOC)c([N+](=O)[O-])c1 | 33.2 (≈ 124 µM) |
| O=C(NCc1cccc(F)c1F)C1CCC(=O)N(C2CC2)C1 (centres undefined) | 38.1 (≈ 124 µM) |
| CCOC(=O)Cn1cnc2scc(-c3ccc(C)cc3)c2c1=O | 38.2 (≈ 116 µM) |
